Data published in ChEMBL document CHEMBL4651402, “Screening of ~5500 FDA-approved drugs and clinical candidates for anti-SARS-CoV-2 activity” (2021).
pIC50: −log10 of the molar value.

Test system: SARS-CoV-2
Assay: microbe, parasite or virus in culture
Conditions: Severe acute respiratory syndrome coronavirus 2, Vero C1008, 48 h; for IC50: read-out: pIC50 (converted)

Row | Structure (SMILES) | pIC50 | IC50
1 | O=C1CCCN1CC1CCN(c2ccnc(C(F)(F)F)n2)CC1 | < 4.70 | > 20 µM
2 | CN(C)c1cc(NC(=O)CNC(C)(C)C)c(O)c2c1C[C@H]1C[C@H]3[C@H](N(C)C)C(O)=C(C(N)=O)C(=O)[C@@]3(O)C(O)=C1C2=O [TIGECYCLINE] | < 4.70 | > 20 µM
3 | OCCN1CCCCC1C(c1ccccc1)c1ccccc1 (stereo not given) [DIFEMETOREX] | < 4.70 | > 20 µM
4 | CCCC(=O)O[C@]1(C(=O)COC(C)=O)CC[C@H]2[C@@H]3C[C@H](F)C4=CC(=O)C=C[C@]4(C)[C@@]3(F)[C@@H](O)C[C@@]21C [DIFLUPREDNATE] | < 4.70 | > 20 µM
5 | Cc1cc(-n2c(=O)[nH]c(=O)n(C)c2=O)ccc1Oc1ccc(SC(F)(F)F)cc1 [TOLTRAZURIL] | < 4.70 | > 20 µM
6 | CC(C(=O)O)c1ccc(Oc2nccs2)cc1 (stereo not given) [ZOLIPROFEN] | < 4.70 | > 20 µM
7 | Cc1nc(N(C)C(=O)Cc2ccc(-c3ccccn3)cc2)sc1S(N)(=O)=O | < 4.70 | > 20 µM
8 | O=C(c1ccc2nonc2c1)N1CCCCC1 [FARAMPATOR] | < 4.70 | > 20 µM
9 | CC(C)c1ccc2c(c1)c(SC(C)(C)C)c(CC(C)(C)C(=O)O)n2Cc1ccc(Cl)cc1 | < 4.70 | > 20 µM
10 | CC(C)CCCC(C)C1CCC2C3CCC4CC(=O)CCC4(C)C3CCC12C (stereo not given) | < 4.70 | > 20 µM
11 | C=CCc1ccccc1OC[C@@H](O)CNC(C)C | < 4.70 | > 20 µM
12 | O=C(O)c1cc(O)ccc1O [GENTISIC ACID] | < 4.70 | > 20 µM
13 | N/N=c1\[nH][nH]/c(=N\N)c2ccccc12 [DIHYDRALAZINE] | < 4.70 | > 20 µM
14 | O=C1C[C@@H]2OCC=C3CN4CC[C@]56c7ccccc7N1[C@H]5[C@H]2[C@H]3C[C@H]46 [STRYCHNINE] | < 4.70 | > 20 µM
15 | COc1cc(C(=O)NS(=O)(=O)c2ccccc2C)ccc1Cc1cn(C)c2ccc(NC(=O)OC3CCCC3)cc12 [ZAFIRLUKAST] | < 4.70 | > 20 µM
16 | C[C@H]1Oc2cc(cnc2N)-c2c(nn(C)c2C#N)CN(C)C(=O)c2ccc(F)cc21 [LORLATINIB] | < 4.70 | > 20 µM
17 | NS(=O)(=O)c1cc2c(cc1Cl)NC(C1CC3C=CC1C3)NS2(=O)=O (stereo not given) [CYCLOTHIAZIDE] | < 4.70 | > 20 µM
18 | CCCC(=O)c1ccc2c(c1)N(CCCN1CCN(C)CC1)c1ccccc1S2 [BUTAPERAZINE] | < 4.70 | > 20 µM
19 | COc1ccccc1OCC(O)CO (stereo not given) [GUAIFENESIN] | < 4.70 | > 20 µM
20 | Oc1cc(O)c2c(c1)O[C@H](c1ccc(O)c(O)c1)[C@@H](O)C2 [CIANIDANOL] | < 4.70 | > 20 µM

Row | Structure (SMILES) | pIC50 | IC50
21 | CN1CCN(C(c2ccccc2)c2ccc(Cl)cc2)CC1 (stereo not given) [CHLORCYCLIZINE] | < 4.70 | > 20 µM
22 | O=C(O)C1=CC(=C(c2ccc(O)c(C(=O)O)c2)c2ccc(O)c(C(=O)O)c2)C=CC1=O [AURINTRICARBOXYLIC ACID] | < 4.70 | > 20 µM
23 | COC(=S)NCCn1c([N+](=O)[O-])cnc1C [CARNIDAZOLE] | < 4.70 | > 20 µM
24 | CC(=O)NCCOC(=O)[C@H](Oc1cccc(C(F)(F)F)c1)c1ccc(Cl)cc1 [ARHALOFENATE] | < 4.70 | > 20 µM
25 | C[C@H]1c2cccc(O)c2C(=O)C2=C(O)[C@]3(O)C(=O)C(C(N)=O)=C(O)[C@@H](N(C)C)[C@@H]3[C@@H](O)[C@@H]21 [DOXYCYCLINE] | < 4.70 | > 20 µM
26 | CO/N=C(\C#N)[C@@H]1CN2CCC1CC2 | < 4.70 | > 20 µM
27 | CCN1C(=O)NC(c2ccccc2)C1=O (stereo not given) [ETHOTOIN] | < 4.70 | > 20 µM
28 | CC(Oc1c(Cl)cccc1Cl)C1=NCCN1 (stereo not given) [LOFEXIDINE] | < 4.70 | > 20 µM
29 | COC(=O)C1=C(C)NC(C)=C(C(=O)OCCCN2CCC(c3ccccc3)(c3ccccc3)CC2)C1c1cccc([N+](=O)[O-])c1 (stereo not given) | < 4.70 | > 20 µM
30 | CCCC(=O)O [BUTYRIC ACID] | < 4.70 | > 20 µM
31 | N#CC1(c2ccc(NC(=O)c3cccnc3NCc3ccncc3)cc2)CCCC1 [RIVOCERANIB] | < 4.70 | > 20 µM
32 | COc1ccc(C(=O)CC(=O)c2ccc(C(C)(C)C)cc2)cc1 [AVOBENZONE] | < 4.70 | > 20 µM
33 | CC(=O)N1C[C@H](O)C[C@H]1C(=O)N[C@@H](CCCN=C(N)N)C(=O)c1nc2ccccc2s1 | < 4.70 | > 20 µM
34 | COc1ccc(/C=C/C(=O)O)cc1OC | < 4.70 | > 20 µM
35 | COc1ccc([C@]2(C#N)CC[C@@H](C(=O)O)CC2)cc1OC1CCCC1 [CILOMILAST] | < 4.70 | > 20 µM
36 | CC(C)C(=O)OC[C@@]1(CCl)O[C@@H](n2ccc(N)nc2=O)[C@H](F)[C@@H]1OC(=O)C(C)C [LUMICITABINE] | < 4.70 | > 20 µM
37 | CC1(C)SC2C(/N=C/N3CCCCCC3)C(=O)N2C1C(=O)O (stereo not given) | < 4.70 | > 20 µM
38 | COC(=O)c1nc2cc(Cl)c3cccnc3c2o1 [QUAZOLAST] | < 4.70 | > 20 µM
39 | O=C(O)CNC(=O)c1nc(Cl)c2ccccc2c1O | < 4.70 | > 20 µM
40 | c1ccc2c(c1)Nc1ccccc1S2 [PHENOTHIAZINE] | < 4.70 | > 20 µM

Row | Structure (SMILES) | pIC50 | IC50
41 | O=C(O)CO [GLYCOLIC ACID] | < 4.70 | > 20 µM
42 | Cc1cc(=O)[nH]c(=S)[nH]1 [METHYLTHIOURACIL] | < 4.70 | > 20 µM
43 | CC(Cc1ccccc1)NN (stereo not given) [PHENIPRAZINE] | < 4.70 | > 20 µM
44 | N[C@@H](CC(=O)N1CCn2c(nnc2C(F)(F)F)C1)Cc1cc(F)c(F)cc1F [SITAGLIPTIN] | < 4.70 | > 20 µM
45 | COC1C(C)OC(OC2C=C3CCC4C(CCC5(C)C(c6ccc(=O)oc6)CCC45O)C3(C)CC2)C(O)C1O (stereo not given) | < 4.70 | > 20 µM
46 | Nc1ccncc1N [AMIFAMPRIDINE] | < 4.70 | > 20 µM
47 | C[C@H]1O[C@H](O[C@H]2[C@H](O)[C@@H](O)[C@@H](O[C@@H]([C@H](O)[C@@H](O)C=O)[C@H](O)CO)O[C@@H]2CO)[C@H](O)[C@@H](O)[C@@H]1N[C@H]1C=C(CO)[C@@H](O)[C@H](O)[C@H]1O.C[C@H]1O[C@H](O[C@H]2[C@H](O)[C@@H](O)[C@@H](O[C@H]3[C@H](O)[C@@H](O)[C@H](O)O[C@@H]3CO)O[C@@H]2CO)[C@H](O)[C@@H](O)[C@@H]1N[C@H]1C=C(CO)[C@@H](O)[C@H](O)[C@H]1O | < 4.70 | > 20 µM
48 | C[N+](C)(C)CC(=O)O [BETAINE] | < 4.70 | > 20 µM
49 | [2H][C@]1(O)[C@@H](CO)O[C@@H](n2ccc(N)nc2=O)[C@]1(C)O | < 4.70 | > 20 µM
50 | CC(=O)NCCCCCCNC(C)=O [HEXAMETHYLENEBISACETAMIDE] | < 4.70 | > 20 µM
51 | C/C=C1/[C@H](O[C@@H]2O[C@H](CO)[C@@H](O)[C@H](O)[C@H]2O)OC=C(C(=O)OC)[C@H]1CC(=O)OCCc1ccc(O)c(O)c1 [OLEUROPEIN] | < 4.70 | > 20 µM
52 | N=C(N)NC(=O)Cc1c(Cl)cccc1Cl [GUANFACINE] | < 4.70 | > 20 µM
53 | CCc1ccc(CCOc2ccc(CC3SC(=O)NC3=O)cc2)nc1 (stereo not given) [PIOGLITAZONE] | < 4.70 | > 20 µM
54 | C=C1CC23CCC4C(C)(C(=O)O)CCCC4(C)C2CCC1(OC1OC(CO)C(O)C(O)C1OC1OC(CO)C(O)C(O)C1O)C3 (stereo not given) | < 4.70 | > 20 µM
55 | CN(C)CCOC(c1ccccc1)c1ccccc1.Cn1c(=O)c2[nH]c(Cl)nc2n(C)c1=O [DIMENHYDRINATE] | < 4.70 | > 20 µM
56 | COc1ccn(C)c(=O)c1C#N [RICININE] | < 4.70 | > 20 µM
57 | O=C(CCCN1CCN(c2ccccn2)CC1)c1ccc(F)cc1 [AZAPERONE] | < 4.70 | > 20 µM
58 | CN1C[C@H](CO)C=C2c3cccc4[nH]cc(c34)C[C@H]21 | < 4.70 | > 20 µM
59 | CC1(C)OC(=O)Nc2ccc(Br)cc21 [BROFOXINE] | < 4.70 | > 20 µM
60 | CC12CCC3C(CC=C4CC(O)CCC43C)C1CCC2=O (stereo not given) | < 4.70 | > 20 µM
